Test results reported in publication PMC10145360, “Antiplatelet Aggregation Properties of Cirsilineol: A Novel Inhibitor of Blood Coagulation Factor Xa” (Pharmaceuticals, 2023).

Assays:
[1] = test system: human platelet-rich plasma (PRP); assay: In vitro agonist-induced platelet aggregation (aggregometer); format: cell-based
Description: Figure 3 Effects of CSL on agonist-induced platelet aggregation. Platelet-rich plasma (PRP) was preincubated for 5 min with different concentrations of CSL, Riva, or the vehicle. […] Data are shown as mean values ± SD of five independent experiments. * p < 0.05 vs. D. D = 0.2% DMSO, used as the vehicle control.
Ten fasting healthy volunteers (aged 24–28; six women and four men) who were free of allergies, cardiovascular problems, carbohydrate, or lipid metabolic abnormalities and had not taken any morning medication had their blood samples taken. None of our subjects used addictive drugs or antioxidant food supplements, and their diets were well balanced. The plasma from the blood samples was immediately spun down (1300× g for 15 min) to separate it from sodium citrate (10.9 mM) and pooled for the following investigations. Next, human blood samples were spun down at room temperature to rapidly separate the PRP. The PRP concentration was adjusted to 1 × 10^9 platelets/mL using a hemocytometer. After being rinsed once in HEPES buffer containing 1 mM CaCl2, the PRP pellet was maintained at room temperature for an additional 30 min. Then, 10 mL of the platelet samples were utilized to measure each clotting time point. The IRB of Kyungpook National University Hospital (Daegu, Republic of Korea) approved this study protocol (KNUH 2012-01-010).
CSL dissolved in DMSO was incubated with human PRP for a specified time (1, 3, 5, or 10 min). […]

tPA = molecular target: T1, tPA (Homo sapiens, UniProt P00750); assay: Inhibitory constant, chromogenic substrate assay; format: biochemical
T1 construct: purchased Haematologic Technologies (Essex Junction, VT, USA)
Description: (§1) Ki values were calculated based on chromogenic substrate experiments. CSL was employed in each assay at a minimum of seven concentrations in duplicate to obtain an inhibition curve. A total of 50 μL of substrate was combined with 25 μL of each chemical solution, inhibitor solution, or blank buffer. Before the plate was allocated into the Labsystems IEMS microtiter plate reader (Cergy Pontoise, France), 25 μL of the enzyme solution was mixed. The plate was allowed for 1 h at 37 °C before analysis. We continuously observed the formation of p-nitroaniline produced when the substrate was hydrolyzed using spectrophotometry at 405 nm. The maximum initial reaction rates were computed as the millioptical density per minute. A Dixon plot of 1/Vmax versus inhibitor concentration was used to fit the curve and determine the Ki values.

α-Thrombin = molecular target: T2, α-Thrombin (Homo sapiens, UniProt P00734); assay: Inhibitory constant, chromogenic substrate assay; format: biochemical
T2 construct: α-Thrombin; purchased Haematologic Technologies (Essex Junction, VT, USA)
Description: as §1

Plasmin = molecular target: T3, Plasmin (Homo sapiens, UniProt P00747); assay: Inhibitory constant, chromogenic substrate assay; format: biochemical
T3 construct: S-2251 for plasmin; purchased Haematologic Technologies (Essex Junction, VT, USA)
Description: as §1

[2] = test system: FeCl3-induced carotid artery thrombosis; assay: FeCl3-induced carotid artery thrombosis model; format: in vivo, mouse; conditions: mice
Description: A mouse model of FeCl3-induced thrombosis was created and used. Male C57BL/6 mice were starved for the entire night before receiving intravenous injections of the relevant drug in 0.2 mL of DMSO and were allowed to sleep. The carotid artery of the animal was exposed. The adventitial surface was covered with a cotton thread (200 μm in diameter) soaked in FeCl3 solution (0.25 M) for 5 min. The wound was flushed with saline solution once the thread had been removed. […] We measured the size and rate of thrombus formation, and we graded our results as follows: no thrombus or small thrombus (75–50 μm), medium thrombus (150–100 μm), massive thrombus (300–200 μm), and more than three thrombi. It was also noted how long it took for an extensive thrombus to obstruct the carotid artery following endothelial damage caused by FeCl3.

Trypsin = assay: Inhibitory constant, chromogenic substrate assay; format: biochemical, human
Description: as §1

T3 sequence (P00747 581-810 limits assumed): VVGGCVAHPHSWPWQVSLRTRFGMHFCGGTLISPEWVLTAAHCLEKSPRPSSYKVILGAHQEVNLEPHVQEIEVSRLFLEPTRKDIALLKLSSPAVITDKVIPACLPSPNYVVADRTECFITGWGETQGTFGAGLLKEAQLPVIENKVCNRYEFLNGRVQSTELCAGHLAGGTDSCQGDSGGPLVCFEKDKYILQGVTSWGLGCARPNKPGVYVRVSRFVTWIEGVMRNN
T3 sequence (P00747 97-580 partner limits assumed): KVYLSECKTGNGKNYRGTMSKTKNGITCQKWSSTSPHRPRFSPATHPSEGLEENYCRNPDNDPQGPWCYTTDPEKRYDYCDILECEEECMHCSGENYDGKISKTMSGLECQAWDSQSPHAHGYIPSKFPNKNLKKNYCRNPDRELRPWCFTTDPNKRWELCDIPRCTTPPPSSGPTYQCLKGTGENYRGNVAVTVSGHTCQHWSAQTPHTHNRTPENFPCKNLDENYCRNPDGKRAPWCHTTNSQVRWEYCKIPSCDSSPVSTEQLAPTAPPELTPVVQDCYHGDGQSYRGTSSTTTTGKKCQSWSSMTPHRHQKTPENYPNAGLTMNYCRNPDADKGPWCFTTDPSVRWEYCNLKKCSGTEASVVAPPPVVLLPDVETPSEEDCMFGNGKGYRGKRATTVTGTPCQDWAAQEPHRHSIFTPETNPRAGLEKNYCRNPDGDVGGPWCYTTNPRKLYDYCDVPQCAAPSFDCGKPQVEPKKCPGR
T1 sequence (P00750 36-562): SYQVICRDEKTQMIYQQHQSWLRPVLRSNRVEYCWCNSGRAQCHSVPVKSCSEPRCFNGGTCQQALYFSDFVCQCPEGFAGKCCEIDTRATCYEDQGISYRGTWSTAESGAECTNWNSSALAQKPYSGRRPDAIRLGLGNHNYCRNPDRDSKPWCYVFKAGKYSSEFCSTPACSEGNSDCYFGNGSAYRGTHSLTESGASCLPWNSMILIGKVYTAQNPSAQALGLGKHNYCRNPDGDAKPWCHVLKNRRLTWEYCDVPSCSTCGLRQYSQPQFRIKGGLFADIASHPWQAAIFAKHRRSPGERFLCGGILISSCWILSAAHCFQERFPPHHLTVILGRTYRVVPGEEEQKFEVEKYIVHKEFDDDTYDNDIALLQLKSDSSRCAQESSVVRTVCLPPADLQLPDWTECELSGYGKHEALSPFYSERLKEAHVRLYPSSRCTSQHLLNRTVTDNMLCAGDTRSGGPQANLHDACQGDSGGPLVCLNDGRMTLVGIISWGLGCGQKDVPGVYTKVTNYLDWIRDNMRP

## COc1cc(-c2cc(=O)c3c(O)c(OC)c(OC)cc3o2)ccc1O [CSL, 4,5-dihydroxy-3,6,7-trimethoxyflavone]
[1]; ADP 10 μM
  platelet aggregation induced by ADP: significantly suppressed
[1]; U46619 6 μM
  platelet aggregation induced by U46619: significantly suppressed
[1]; collagen 1 μg/mL
  platelet aggregation induced by collagen: significantly suppressed
tPA
  Ki: > 300 µM
  Ratio = Ki enzyme/Ki Factor Xa: >100
α-Thrombin
  Ki: > 300 µM
  Ratio = Ki enzyme/Ki Factor Xa: >100
Plasmin
  Ki: > 300 µM
  Ratio = Ki enzyme/Ki Factor Xa: >100
[2]; 0.13 mg/kg intravenous
  Scored thrombus formation: 3.7 ± 0.2
  Time to Large Thrombus Formation: 13.1 ± 1.1 min
[2]; 0.26 mg/kg intravenous
  Scored thrombus formation: 2.7 ± 0.1
  Time to Large Thrombus Formation: 27.2 ± 2.1 min
[2]; 0.51 mg/kg intravenous
  Scored thrombus formation: 1.8 ± 0.1
  Time to Large Thrombus Formation: 51.4 ± 3.1 min
Trypsin
  Ki: > 300 µM
  Ratio = Ki enzyme/Ki Factor Xa: >100
